Measured values taken from paper PMC7497626, “Ruthenium-Mediated ^18F-Fluorination and Preclinical Evaluation of a New CB1 Receptor Imaging Agent [^18F]FPATPP” (ACS Chemical Neuroscience, 2020).
Like-named read-outs stand apart in the source and are kept apart here.

Columns and labels:
mouse cerebral CB1Rs [1] = target: T1, mouse cerebral CB1Rs (Mus musculus, UniProt P47746); assay: In vivo dynamic PET/CT imaging with [^18F]4, with and without rimonabant blocking
T1 construct: from tissue
Experimental: Dynamic PET scans were performed for 5 month old mice with an Inveon Multimodality PET/CT scanner (Siemens Medical Solutions USA, Knoxville, Tennessee). Mice were anesthetized with 2.5% isoflurane/oxygen gas, and body temperature was maintained with a heating pad and a bubble-wrap cover. CT transmission scans were performed to correct for attenuation. PET scans were initiated in parallel with an intravenous (iv) bolus injection of [^18F]4 to the mouse tail vein (4–5 month old, n = 6, 2 females; injected radioactivity 4.0 ± 0.4 MBq; injected mass 56 ± 25 ng, 1.7 ± 0.7 μg/kg).
Dynamic emission scans were acquired for 120 min in 3D list mode, with an energy window of 350–650 keV. Scanning times were 120 min (54 frames 30 × 10 s, 15 × 60 s, 4 × 300 s, 2 × 600 s, 3 × 1200 s). The list mode data were stored in 3D sinograms. Data were reconstructed with OSEM3D/MAP software (2 OSEM3D iterations and 18 MAP iterations). The PET/CT images were preprocessed in Matlab R2017a (The MathWorks, Natick, Massachusetts) with an in-house semiautomated pipeline for preclinical images that uses SPM12 (Wellcome Department of Cognitive Neurology, London, UK) preprocessing functionalities and analysis routines. Images were first cropped to a bounding box containing the heads, and individual PET images were coregistered through a rigid-body transformation to their corresponding CT scan. Subjects were spatially normalized through a two-step registration (a rigid followed by an affine transformation) of each subject’s CT to a template CT that was previously constructed as an average of several subjects and was aligned with an atlas T2-weighted MRI template. The combination of transformations was then applied to the PET images, which were also resampled to a voxel size of 0.2 × 0.2 × 0.2 mm^3 (trilinear interpolation), matching the anatomical atlas dimensions.
Volume of interest (VOI) analysis of the whole brain, neocortex, and hippocampus was performed on each subject by averaging the signal inside a slightly modified version of the Ma et al.[40] atlas delineated VOIs, and data were obtained as standardized uptake values (SUVs). SUVs were calculated as follows: SUV = tissue activity concentration (Bq/mL)/(injected dose (Bq)/body weight (g)); it was assumed that 1 mL of tissue equals 1 g. Tissue activity and dose were decay corrected to the same time point.
(§1) The specificity of [^18F]4 on mouse cerebral CB1Rs was examined in a 120 min in vivo study, and then, the same mice were used for ex vivo biodistribution and brain autoradiography studies. […] Control mice (n = 3, 1 female) were the given vehicle (90 μL, 10% EtOH in Kleptose β-cyclodextrin). […] Mice were sacrificed 120 min after iv injection of [^18F]4, and the ^18F-radioactivity distribution differences between pretreated and control mice were examined with in vivo PET imaging, ex vivo autoradiography, and 2480 Wizard Gamma Counter, and the data were analyzed as described in the previous sections.

mouse cerebral CB1Rs [2] = target: T1, mouse cerebral CB1Rs; assay: Ex vivo brain autoradiography with [^18F]4, region-to-thalamus ratios; format: in vivo; conditions: 120 min post injection
Experimental: For autoradiography, brains were further frozen and cut into 20 μm coronal cryosections for digital autoradiography, and the slices were exposed on an imaging plate (BAS-TR2025, Fuji Photo Film Co.) for approximately 2 half-lives and scanned with a Fuji BAS5000 phosphorimager (FUJIFILM Life Science, Stamford, Connecticut). Digital autoradiographic images were analyzed for count densities with the Aida 4 program (Raytest Isotopenmessgeräte GmbH, Straubenhardt, Germany). For brain slices, regions of interest (ROIs) were drawn over the parietotemporal cortex, striatum, frontal cortex, hippocampus, cerebellar gray matter, and thalamus. The autoradiography was quantified as ratios of the different ROIs relative to the thalamus, which was used as the reference region.
as §1

[3] = Radiometabolite analysis with [^18F]4 in plasma and cortex; format: in vivo, mouse; conditions: 120 min p.i., n = 5
Experimental: The 2 month old animals (n = 11, used only for ex vivo studies) were used for metabolite analysis. Plasma and brain samples were collected at 30 (n = 4), 60 (n = 2), and 120 min (n = 5) p.i. Plasma samples were treated with MeCN and centrifuged to remove the proteins from the solution. Brain tissue samples were treated with the 40/60 (v/v) 1% TFA (aq)/MeCN solution and then centrifuged. The supernatants were applied to HPTLC silica gel 60 RP-18 plates (Art. 1.05914.0001, Merck, Darmstadt, Germany), and the plates were developed in 40/60 (v/v) 1% TFA (aq)/ MeCN. After drying, the TLC plates were exposed to an imaging plate for approximately 4 h and the imaging plate was scanned with a Fuji Analyzer BAS5000. The amount of [^18F]4 and its radioactive metabolites were analyzed with the Aida 4 program, and the curves were fitted with GraphPad Prism 6.0 (GraphPad Software, San Diego, California) using a double exponential decay equation.

[4] = Stability / shelf life of the formulated tracer towards radiolysis; format: physicochemical; conditions: studied up to 5 h after the EOS, n = 2
Experimental: For tracer production for preclinical evaluation, larger amounts of initial [^18F]fluoride were used and full purification and formulation processes were performed. For the radiofluorination, the SPE method with a 30 min reaction at 160 °C was utilized (conditions as in bar 2, Figure 2B). Elution efficiency was 93 ± 2% (n = 5). Total RCY was 16.7 ± 5.7% (decay-corrected to end of bombardment, d.c. to EOB, n = 5), molar activity (Am) > 95 GBq/μmol (d.c. to end of synthesis, EOS, n = 1) and radiochemical purity (RCP) 99.9 ± 0.1% at EOS (n = 5). Activity yield was 1.0 ± 0.4 GBq (n = 5) at EOS. Synthesis time was 87 ± 5 min (n = 5). The amount of ruthenium in the formulated product was 7.8 ± 1.8 μg/mL.
For PET tracers for clinical use, a generally acknowledged limit for RCP is 95%. […] Lahdenpohja et al. reported that the RCP of [^18F]FMPEP-d2 at EOS varied between 95.5–100% and was a function of radioactivity concentration, which was 20–200 MBq/mL (n > 150) in a 10% ethanolic solution, and the RCP was declined as a function of time due to radiolytic decomposition.[32] The shelf life of the [^18F]FMPEP-d2 was determined to be 120 min.[32] For [^18F]4 formulated in a similar ethanolic solution, the RCP at EOS was 99.9% when the RAC was 200–450 MBq/mL and the shelf life was determined to be at least 300 min, with no significant development of radioactive impurities. […]

[5] = Ex vivo biodistribution with [^18F]4; format: in vivo, mouse
Experimental: All in vivo animals (n = 6, 2 females) and additional 2 month old mice (n = 11, males, injected radioactivity 7.0 ± 3.0 MBq; injected mass 160 ± 60 ng, 6.2 ± 2.6 μg/kg) were used for ex vivo studies to examine the biodistribution and metabolism of [^18F]4. Thus, the injected dose and injected mass to all the animals used (n = 17) were 5.9 ± 2.8 MBq and 120 ± 70 ng, 4.6 ± 3.0 μg/kg, respectively. After iv injection of [^18F]4, mice were sacrificed in deep anesthesia of 4.0% isoflurane with cardiac puncture at 30 (n = 4), 60 (n = 2), and 120 min (in vivo animals, n = 6 and 2 month old mice n = 5). Organs were immediately dissected, weighed, and measured for ^18F-radioactivity in a 2480 Wizard Gamma Counter (Wallac PerkinElmer, Turku, Finland).
as §1

[6] = design: method as in PMID 32374481; conditions: 10% ethanolic solution, radiolytic decomposition; cited from earlier work
CB1R [7] = system: CB1R; design: method as in doi:10.1016/B978-0-12-417041-4.00002-3; conditions: cited from earlier work
[8] = design: method as in PMID 29909177; conditions: 180 min p.i.; cited from earlier work
CB1R [9] = system: CB1R; design: method as in PMID 29909177; conditions: mice, cited from earlier work
CB1R [10] = conditions: cited from earlier work
[11] = Ex vivo biodistribution with [^18F]FMPEP-d2; format: in vivo, mouse
Experimental: After iv injection of [^18F]FMPEP-d2 to the mouse tail vein, the mice were sacrificed at the following time points: 30 min (3–4 month old, n = 3, males; injected radioactivity 1.3 ± 0.3 MBq; injected mass 1.5 ± 0.5 ng), 60 min (3–4 months old, n = 4, males; injected radioactivity 1.2 ± 0.8 MBq; injected mass 1.3 ± 1.0 ng), and 120 min (1.5–6 month old, n = 12, 5 females; injected radioactivity 2.6 ± 0.8 MBq; injected mass 3.1 ± 1.1 ng). Mice were sacrificed in deep anesthesia of 4.0% isoflurane with cardiac puncture. Organs were operated in the similar manner as in the biodistribution study with [^18F]4.

CB1R [12] = system: CB1R; design: method as in PMID 22699528; conditions: cited from earlier work
[13] = 2 mg/kg rimonabant iv 10 min before tracer, 120 min after injection

T1 sequence (P47746 whole entry): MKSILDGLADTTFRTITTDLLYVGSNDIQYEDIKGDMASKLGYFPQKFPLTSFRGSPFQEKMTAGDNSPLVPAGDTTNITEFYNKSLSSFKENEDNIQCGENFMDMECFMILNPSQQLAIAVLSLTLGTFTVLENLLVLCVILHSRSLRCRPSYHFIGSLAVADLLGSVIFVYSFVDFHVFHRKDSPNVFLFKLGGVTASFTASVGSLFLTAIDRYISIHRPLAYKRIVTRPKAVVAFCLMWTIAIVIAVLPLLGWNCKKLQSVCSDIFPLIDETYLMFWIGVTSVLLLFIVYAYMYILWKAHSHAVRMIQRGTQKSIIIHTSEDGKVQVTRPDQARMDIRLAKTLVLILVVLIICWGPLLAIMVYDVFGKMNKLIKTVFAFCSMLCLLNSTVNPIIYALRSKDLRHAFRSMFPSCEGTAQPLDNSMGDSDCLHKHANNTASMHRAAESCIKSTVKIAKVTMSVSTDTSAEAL

C[C@@H](N[C@@H]1C[C@H](c2cccc([18F])c2)N(c2ccc(C(F)(F)F)cc2)C1=O)c1ccccc1 [[^18F]4, (3R,5R)-5-(3-[^18F]fluorophenyl)-3-(((R)-1-phenylethyl)amino)-1-(4-(trifluoromethyl)phenyl)pyrrolidin-2-one]
Reduction of binding by rimonabant pretreatment, hippocampus (mouse cerebral CB1Rs [1]; [13]): 62%
Reduction of binding by rimonabant pretreatment, neocortex (mouse cerebral CB1Rs [1]; [13]): 59%
Reduction of binding by rimonabant pretreatment, whole brain (mouse cerebral CB1Rs [1]; [13]): 58%
Washout (mouse cerebral CB1Rs [1]; wild-type mice): washout phase began immediately after the peak uptake
SUV at 120 min p.i. (after washout) (mouse cerebral CB1Rs [1]; wild-type mice, 120 min p.i.): 1.3
Peak standardized uptake value (SUV), hippocampus (mouse cerebral CB1Rs [1]; wild-type mice, baseline): 2.14
Peak standardized uptake value (SUV), neocortex (mouse cerebral CB1Rs [1]; wild-type mice, baseline): 1.80
Peak standardized uptake value (SUV), whole brain (mouse cerebral CB1Rs [1]; wild-type mice, baseline): 1.92
Time of maximum tracer uptake after injection (mouse cerebral CB1Rs [1]; wild-type mice, brain PET): 30 min
Region-to-thalamus ratios in mice pretreated with rimonabant (mouse cerebral CB1Rs [2]; 2 mg/kg rimonabant pretreatment): ~1
Ratio cortex and cerebellar gray matter to thalamus (mouse cerebral CB1Rs [2]; without blocking): 3.7
Ratio frontal cortex to thalamus (mouse cerebral CB1Rs [2]; without blocking): 2.5
Ratio globus pallidus to thalamus (mouse cerebral CB1Rs [2]; without blocking): 4.9
Ratio parietotemporal cortex to thalamus (mouse cerebral CB1Rs [2]; without blocking): 2.3
Ratio striatum to thalamus (mouse cerebral CB1Rs [2]; without blocking): 2.8
Ratio whole hippocampus to thalamus (mouse cerebral CB1Rs [2]; without blocking): 2.6
Residual tracer in plasma, of the total ^18F-radioactivity [3]: approximately 21.3 ± 3.5%
Residual tracer in the cortex, of the total ^18F-radioactivity [3]: 75.0 ± 4.3%
Stability of the formulated tracer after EOS [4]: no significant decomposition was observed
Cortex uptake ([5]; 30 min p.i.): 11.5 ± 3.7 %ID/g
Liver uptake ([5]; 30 min p.i.): 12.1 ± 0.7 %ID/g
Whole brain uptake ([5]; 30 min p.i.): 9.8 ± 3.2 %ID/g
Bone uptake (skull bone, parietal bone) ([5]; 120 min p.i.): 0.4 ± 0.1 %ID/g
Cortex uptake ([5]; 120 min p.i.): 5.1 ± 1.17 % ID/g
Liver uptake ([5]; 120 min p.i.): 8.2 ± 1.6 %ID/g
Whole brain uptake ([5]; 120 min p.i.): 4.9 ± 0.9 %ID/g
Cortex uptake in rimonabant treated mice ([5]; 120 min p.i., 2 mg/kg rimonabant pretreatment): 1.8 ± 0.2 %ID/g

C[C@@H](N[C@@H]1C[C@H](c2cccc(OC[18F])c2)N(c2ccc(C(F)(F)F)cc2)C1=O)c1ccccc1 [[^18F]FMPEP-d2, (3R,5R)-5-(3-([^18F]fluoromethoxy)phenyl)-3-(((R)-1-phenylethyl)amino)-1-(4-(trifluoromethyl)phenyl)pyrrolidin-2-one]
Shelf life [6]: 120 min
CB1R vs CB2R selectivity (CB1R [7]): 3580
Kb (CB1R [7]; for CB1R, read-out: In vitro potency (Kb)): 0.187 nM
Amount of residual tracer [8]: 86%
Washout (CB1R [9]; up to 90 min p.i.): essentially no washout was observed
Time of maximum tracer uptake (CB1R [9]): 30 min
Whole brain SUV (CB1R [9]): 1.5
Washout (CB1R [10]; human studies): slow washout
Whole brain ^18F-radioactivity uptake ([11]; 30 min p.i., healthy mice): 5.6 ± 1.3 %ID/g
Skull bone (parietal bone) radioactivity uptake ([11]; 120 min p.i., healthy mice): 2.7 ± 0.5 %ID/g
Defluorination compared to [^18F]4 ([11]; at 120 min, from skull bone uptake): over 6 fold

Cc1ccc(OC(C)(C)C(=O)N[C@@H](C)[C@@H](Cc2ccc(OCC[18F])cc2)c2cccc(C#N)c2)nc1 [[^18F]MK-9470, N-{(1S,2S)-2-(3-cyanophenyl)-3-[4-(2-[^18F]fluoroethoxy)phenyl]-1-methylpropyl}-2-methyl-2-[(5-methylpyridin-2-yl)oxy]propanamide]
Washout (CB1R [10]; human, even after 6 h): no washout was observed
Time of maximum tracer uptake post injection (CB1R [12]; rat): 300 min
Washout (CB1R [12]; rats, even after 600 min): no washout was observed
